Data as given in patent EP2132185B1, “PYRIMIDINYL-PIPERAZINES USEFUL AS DOPAMINE D3/D2 RECEPTOR LIGANDS” (Richter Gedeon Nyrt., priority 2007, dated 2008).

Assays:
[1] = target: T1, D2 receptor (Rattus norvegicus, UniProt P61169); assay: D2 receptor binding ([3H]spiperone, rat brain striatal membrane preparation); conditions: for Ki: rat brain striatal membrane preparation, [3H]spiperone
T1 construct: on rat brain striatal membrane preparation; from tissue; host or cells: rat brain striatum membranes
T1 sequence (P61169 whole entry): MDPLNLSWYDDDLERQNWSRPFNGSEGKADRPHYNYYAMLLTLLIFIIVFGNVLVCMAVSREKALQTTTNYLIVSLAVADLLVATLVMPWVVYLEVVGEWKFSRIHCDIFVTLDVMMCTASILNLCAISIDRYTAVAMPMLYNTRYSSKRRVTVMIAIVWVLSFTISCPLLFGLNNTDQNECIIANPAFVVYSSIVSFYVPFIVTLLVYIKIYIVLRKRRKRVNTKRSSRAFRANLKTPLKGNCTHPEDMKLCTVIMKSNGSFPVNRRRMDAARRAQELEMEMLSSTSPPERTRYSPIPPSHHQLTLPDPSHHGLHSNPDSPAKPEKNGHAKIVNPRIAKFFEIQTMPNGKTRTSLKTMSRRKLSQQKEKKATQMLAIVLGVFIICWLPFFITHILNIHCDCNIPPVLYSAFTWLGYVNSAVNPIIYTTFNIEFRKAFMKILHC
Procedure: Non-specific binding was determined in the presence of 1 µM (+) butaclamol.

[2] = target: Alpha-1 receptor; assay: Alpha-1 receptor binding ([3H]-prazosine, rat cortical membrane preparation); conditions: for Ki: rat cortical membrane preparation, [3H]-prazosine, read-out: α-1 Ki
Procedure: The non-specific binding was determined in the presence of 10 µM phentolamine.

[3] = system: male Wistar rats; assay: Scopolamine-induced learning disturbance in the water-labyrinth; assay type: in vivo, rat; conditions: scopolamine 3 mg/kg ip., negative values mean further impairment
Procedure: 6. Scopolamine-Induced Learning Disturbance in the Water-Labyrinth
The learning process of rats was assessed in a 3-choice point water-labyrinth system. The number of directional turning errors was recorded in three daily trials for three experimental days. Male Wistar rats weighing 180-200 g (n=10 per groups) were treated orally with vehicle or the test compounds 1 hour before each daily session. Scopolamine (3 mg/kg ip.) as amnestic agent was injected 30 minutes prior to the first daily trial. Mean ± SE of errors committed in all the trials was calculated in each group. Percent inhibition of scopolamine-induced increase in the number of errors was calculated for each dose of the tested compound.

[4] = system: male Wistar rats; assay: Amphetamine-induced hypermotility; assay type: in vivo; conditions: Rattus norvegicus, 1 h, oral administration one hour before d-amphetamine 0.5 mg/kg sc., read-out: Inhibition of amphetamine-induced hypermotility (ED50, mg/kg)
Procedure: 4. Amphetamine-Induced Hypermotility
One hour after the oral administration of doses of the test compound or vehicle, male Wistar rats were subcutaneously treated with d-amphetamine (0.5 mg/kg, sc.) and were individually placed in activity cages for one hour. Locomotor activity was measured in a four-channel activity monitor equipped with infrared photobeams Horizontal movement was determined as the number of beam interruptions. Mean ± SE of horizontal activity data of each group was calculated. Percent inhibition of amphetamine-induced increase in locomotion was calculated for each dose of the tested compound. The ED-50 value was determined by linear regression fitted to the dose-response plot.

[5] = system: male Wistar rats; assay: Catalepsy test; assay type: in vivo, rat; conditions: for Catalepsy (MED, mg/kg): oral treatment, rats, minimum effective (cataleptic) dose
Procedure: Thirty minutes after the oral treatment with the test compounds male Wistar rats weighing 200-220 g (n=10/group) were placed in extra-ordinary position: placing both forepaws of the rat on a 10 cm high podium. […] The frequency of cataleptic animals was determined at one, two, three, four and five hours after the treatment. Minimum effective (cataleptic) dose was defined as the dose causing catalepsy at least at two readings (i.e. either at two time points in the same animal or in two different animals at any of the time points).

[6] = target: T2, rat recombinant D3 receptors (Rattus norvegicus, UniProt P19020); assay: D3 receptor binding ([3H]spiperone); conditions: rat recombinant D3 receptors expressed in Sf9 cells
T2 construct: purchased Perkin-Elmer 6110139; host or cells: Sf9 cells
T2 sequence (P19020 whole entry): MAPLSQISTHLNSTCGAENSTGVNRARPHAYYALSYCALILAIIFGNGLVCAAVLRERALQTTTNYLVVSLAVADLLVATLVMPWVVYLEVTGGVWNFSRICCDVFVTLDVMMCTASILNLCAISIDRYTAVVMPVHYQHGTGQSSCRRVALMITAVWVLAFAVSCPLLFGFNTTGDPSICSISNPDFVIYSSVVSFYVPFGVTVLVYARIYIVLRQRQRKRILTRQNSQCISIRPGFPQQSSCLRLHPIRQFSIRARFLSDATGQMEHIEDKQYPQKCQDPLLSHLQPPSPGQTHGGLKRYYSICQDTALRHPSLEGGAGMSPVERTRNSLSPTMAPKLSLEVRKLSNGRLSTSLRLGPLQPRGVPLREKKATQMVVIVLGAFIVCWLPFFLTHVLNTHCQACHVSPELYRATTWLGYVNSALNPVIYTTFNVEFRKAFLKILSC

In the case of `CNc1nc(Cl)c(Cl)c(N2CCN(CC[C@H]3CC[C@H](NC(C)=O)CC3)CC2)n1` [Compound 1, Tran-N-(4-{2-[4-(5,6-dichloro-2-methylamino-pyrimidin-4-yl)-piperazin-1-yl]-ethyl}-cyclohexyl)-acetamide], the “D2 Sel. (D2/D3 selectivity, i.e., Ki for D2 receptor divided by Ki for D3 receptor)” value [1] is reported as 22, the Ki [2] is reported as greater than 1000 nM and the “% inhibition” value ([3]; Dose 0.1 mg/kg orally) is reported as 36%. The “% inhibition” value ([3]; Dose 0.2 mg/kg orally) was 58%, the “% inhibition” value ([3]; Dose 0.4 mg/kg orally) was 61% and the “% inhibition” value ([3]; Dose 0.8 mg/kg orally) was 44%. For the same molecule, the ED50 [4] was 0.14 mg/kg, the “TI (therapeutic index - catalepsy MED divided by amphetamine hypermotility ED50)” value [5] was 714 and the “Catalepsy (MED, mg/kg)” value [5] was 100 mg/kg.
`CNc1nc(Cl)c(Cl)c(N2CCN(CC[C@H]3CC[C@H](NC(N)=O)CC3)CC2)n1` [Compound 2, Trans-(4-{2-[4-(5,6-dichloro-2-methylamino-pyrimidin-4-yl)-piperazin-1-yl]-ethyl}-cyclohexyl)-urea] was tested, and the “D2 Sel. (D2/D3 selectivity, i.e., Ki for D2 receptor divided by Ki for D3 receptor)” value [1] was 27, the Ki [1] was 15 to 50 nM and the Ki [6] was 1 to 3 nM. For the same molecule, the Ki [2] was greater than 1000 nM.
With `CCNc1nc(Cl)c(Cl)c(N2CCN(CC[C@H]3CC[C@H](NC(C)=O)CC3)CC2)n1` [Compound 6, trans-N-(4-{2-[4-(5,6-dichloro-2-ethylamino-pyrimidin-4-yl)-piperazin-1-yl]-ethyl}-cyclohexyl)-acetamide] the “D2 Sel. (D2/D3 selectivity, i.e., Ki for D2 receptor divided by Ki for D3 receptor)” value [1] was 23, the Ki [1] was 15 to 50 nM and the Ki [6] was 1 to 3 nM. For the same molecule, the Ki [2] was greater than 1000 nM.
With `CNc1nc(Cl)c(Cl)c(N2CCN(CC[C@H]3CC[C@H](NC(=O)N4CCOCC4)CC3)CC2)n1` [Compound 7, trans-morpholine-4-carboxylic acid (4-{2-[4-(5,6-dichloro-2-methylamino-pyrimidin-4-yl)-piperazin-1-yl]-ethyl}-cyclohexyl)-amide] the Ki [6] was 1 to 3 nM and the Ki [2] was greater than 1000 nM.
For `CNc1nc(Cl)c(Cl)c(N2CCN(CCC3CCC(NC(=O)N(C)C)CC3)CC2)n1` (stereo not drawn) [Compound 8, trans-3-(4-{2-[4-(5,6-dichloro-2-methylamino-pyrimidin-4-yl)-piperazin-1-yl]-ethyl}-cyclohexyl-1,1-dimethyl-urea], the “D2 Sel. (D2/D3 selectivity, i.e., Ki for D2 receptor divided by Ki for D3 receptor)” value [1] was 7, the Ki [1] was 15 to 50 nM and the Ki [6] was 1 to 3 nM. For the same molecule, the Ki [2] was greater than 1000 nM, the “% inhibition” value ([3]; Dose 0.025 mg/kg orally) was 38% and the “% inhibition” value ([3]; Dose 0.05 mg/kg orally) was 65%. For the same molecule, the “% inhibition” value ([3]; Dose 1 mg/kg orally) was 31%, the ED50 [4] was 0.14 mg/kg and the “TI (therapeutic index - catalepsy MED divided by amphetamine hypermotility ED50)” value [5] was greater than 179. The “Catalepsy (MED, mg/kg)” value [5] was greater than 25 mg/kg.
`CCNC(=O)N[C@H]1CC[C@H](CCN2CCN(c3nc(NC)nc(Cl)c3Cl)CC2)CC1` [Compound 10, Trans-1-(4-{2-[4-(5,6-dichloro-2-methylamino-pyrimidin-4-yl)-piperazin-1-yl]-ethyl}-cyclohexyl)-3-ethyl-urea] was tested, and the “D2 Sel. (D2/D3 selectivity, i.e., Ki for D2 receptor divided by Ki for D3 receptor)” value [1] was 17, the Ki [1] was 5 to 15 nM and the Ki [6] was less than 1 nM. It also gave a Ki [2] greater than 1000 nM.
`CCC(=O)NC1CCC(CCN2CCN(c3nc(NC)nc(Cl)c3Cl)CC2)CC1` (stereo not drawn) [Compound 11, trans-N-(4-{2-[4-(5,6-dichloro-2-methylamino-pyrimidin-4-yl)-piperazin-1-yl]-ethyl}-cyclohexyl-propionamide] was tested, and the “D2 Sel. (D2/D3 selectivity, i.e., Ki for D2 receptor divided by Ki for D3 receptor)” value [1] was 43, the Ki [1] was 5 to 15 nM and the Ki [6] was less than 1 nM. For the same molecule, the Ki [2] was greater than 1000 nM.
With `Cc1cc2c(s1)Nc1ccccc1N=C2N1CCN(C)CC1` [Olanzapine, reference compound] the “% inhibition” value ([3]; Dose 1 mg/kg orally) was -12%, the “% inhibition” value ([3]; Dose 3 mg/kg orally) was -49% and the ED50 [4] was 1.8 mg/kg.
For `Cc1nc2n(c(=O)c1CCN1CCC(c3noc4cc(F)ccc34)CC1)CCCC2` [Risperidone, reference compound], the “α-1 Sel.” value ([2]; selectivity column under α-1) was 0.07, the “% inhibition” value ([3]; Dose 0.5 mg/kg orally) was -15% and the ED50 [4] was 0.15 mg/kg.
